Measured values as given in patent US9073861B2, “Diphenylmethyl piperazine derivative and pharmaceutical composition using same” (AETAS PHARMA CO., LTD., priority 2011, dated 2015).

Columns and labels:
normal rats = test: Hemodynamics before and after intravenous administration in anesthetized normal rats (left ventricular pressure catheter); assay type: in vivo, Wistar male rats; conditions: 0.1 mg/kg/min for 10 min i.v.; for maximum +dP/dt after administration as compared to that by the comparative compound [A]: FIG. 7; for maximum −dP/dt after administration as compared to that by the comparative compound [A]: FIG. 8
Procedure: Wistar male rats were bred for a week and then anesthetized by inhalation of 3% isoflurane. A pressure sensor-tipped catheter (2F Millar) was inserted into the left ventricle from the right common carotid artery, and a polyethylene tube (SP10) for injection of the compounds of the present invention or physiological saline was inserted from the right femoral vein. After stabilizing hemodynamics for 10 minutes, the compound [2] of the present invention was administered from the polyethylene tube at 0.1 mg/kg/min for 10 min, and the cardiac rate, left ventricular pressure, maximum +dP/dt, and maximum −dP/dt were measured for 20 heart beats every minute. In the control group, only physiological saline, which is a solvent, was administered. It is noted that the injection rate of each solution was 16.6 μl per min.
The cardiac rate, maximum left ventricular pressure, maximum +dP/dt and maximum −dP/dt before administration of a drug were considered as 100%, and the values after administration were represented by values (% representation) relative to the values before administration. Using n=3 rats, experiments were carried out. Data are shown as mean and standard deviation. Consequently, cardiac rate before and after administration (the left side in FIG. 1) and changes in the maximum left ventricular pressure (the right side in FIG. 1) are shown in FIG. 1, and changes in the maximum +dP/dt (the left side in FIG. 2) and changes in the maximum −dP/dt (the right side in FIG. 2) are shown in FIG. 2.
(§1) Wistar male rats were bred for a week and then anesthetized by inhalation of 3% isoflurane. Experiments were carried out in the same manner as in Test Example 1, and the compound [3] of the present invention was administered as a test compound at 0.1 mg/kg/min for 10 min, and the cardiac rate, left ventricular pressure, maximum +dP/dt, and maximum −dP/dt were measured for 20 heart beats every minute. The maximum +dP/dt or the maximum −dP/dt before administration was considered as 100%, and the value after administration was represented by a value (% representation) relative to the value before administration. Data are shown as mean and standard deviation. Using n=3 rats, experiments were carried out.
as §1, with “[4]” for “[3]”
Wistar male rats were bred for a week and then anesthetized by inhalation of 3% isoflurane. Experiments were carried out in the same manner as in Test Example 1, and the comparison comparative compound [A] was administered as a test compound at 0.1 mg/kg/min for 10 min, and the cardiac rate, left ventricular pressure, maximum +dP/dt, and maximum −dP/dt were measured for 20 heart beats every minute. The maximum +dP/dt or the maximum −dP/dt before administration was considered as 100%, and the value after administration was represented by a value (% representation) relative to the value before administration. Data are shown as mean and standard deviation. Using n=3 rats, experiments were carried out.
From the results of the tests carried out in Test Examples 1, 3, 4 and 5, the maximum +dP/dt (FIG. 7) and the maximum −dP/dt (FIG. 8) after administration of the compound [2], and compound [3], and compound [4] of the present invention as well as the comparative compound [A] were compared and examined.

[1] = tested on: rats with obsolete myocardial infarction; test: Effect on myocardial contraction and relaxation in rats with obsolete myocardial infarction (coronary ligation, one month after operation); assay type: in vivo, Wistar male rats; conditions: 0.1 mg/kg/min for 10 min i.v., n=3
Description: Wistar male rats were anesthetized by inhalation of 3% isoflurane. The chest was opened at the left third intercostal space and the pericardial membrane was incised. The left anterior descending coronary artery was completely ligated with silk string (6.0; Ethicon) in the infarction group, and then the chest was immediately closed. Following this procedure, the inserted endotracheal tube was removed, and rats were awakened and then returned to a breeding room.
One month after operation, rats were anesthetized and endotracheally intubated, a pressure sensor-tipped catheter (2F Millar) was inserted into the left ventricle from the right common carotid artery, and a polyethylene tube (SP10) for injection of physiological saline or the compounds of the present invention was inserted from the right femoral vein in the same manner as in Test Example 1. After stabilizing hemodynamics for 10 minutes, the compound [2] of the present invention was administered from the polyethylene tube at 0.1 mg/kg/min for 10 min, and the cardiac rate, left ventricular pressure, maximum +dP/dt, and maximum −dP/dt were measured for 20 heart beats every minute. In the control group, only physiological saline, which is a solvent, was administered. It is noted that the injection rate of each solution was 16.6 μl per min. Using n=3 rats, experiments were carried out.
The maximum +dP/dt or the maximum −dP/dt before administration was considered as 100%, and the value after administration was represented by a value (% representation) relative to the value before administration. Data are shown as mean and standard deviation.

## OC1(c2ccc(Cl)cc2)CCN(CCCN2CCN(C(c3ccccc3)c3ccccc3)CC2)CC1 [compound [3], 1-[4-(diphenylmethyl)piperazinyl]-3-[4-(4-chlorophenyl)-4-hydroxy-piperidinyl]propane]
Normal rats
  maximum +dP/dt after administration as compared to that by the comparative compound [A]: significantly raised
  maximum −dP/dt after administration as compared to that by the comparative compound [A]: significantly raised
Normal rats; pre-administration = 100%, n=3
  maximum +dP/dt (index of contractile function) after vs before administration: significantly increased
  maximum −dP/dt (index of relaxing function) after vs before administration: significantly increased

## OC(CN1CCN(C(c2ccccc2)c2ccccc2)CC1)CN1CCC(O)(c2ccc(Cl)cc2)CC1 (centres unmarked) [comparative compound [A], 1-[4-(diphenylmethyl)piperazinyl]-3-[4-(4-chlorophenyl)-4-hydroxy-piperidinyl]-2-propanol, reference compound]
Normal rats; pre-administration = 100%, n=3
  maximum +dP/dt (index of contractile function) after vs before administration: tended to slightly increase after administration of the comparative compound [A], but significant changes were not observed
  maximum −dP/dt (index of relaxing function) after vs before administration: tended to slightly increase after administration of the comparative compound [A], but significant changes were not observed

## Cc1ccc(C2(O)CCN(CC(O)CN3CCN(C(c4ccccc4)c4ccccc4)CC3)CC2)cc1 (centres unmarked) [compound [4], 1-[4-(diphenylmethyl)piperazinyl]-3-[4-hydroxy-4-(4-methylphenyl)-piperidinyl]-2-propanol]
Normal rats
  maximum +dP/dt after administration as compared to that by the comparative compound [A]: significantly raised
  maximum −dP/dt after administration as compared to that by the comparative compound [A]: significantly raised
Normal rats; pre-administration = 100%, n=3
  maximum +dP/dt (index of contractile function) after vs before administration: significantly increased
  maximum −dP/dt (index of relaxing function) after vs before administration: significantly increased

## OC(CN1CCN(C(c2ccccc2)c2ccccc2)CC1)CN1CCC(O)(c2ccccc2)CC1 (centres unmarked) [compound [2], 1-[4-(diphenylmethyl)piperazinyl]-3-(4-hydroxy-4-phenyl-piperidinyl)-2-propanol]
[1]
  cardiac rate after vs before administration: significant changes in the cardiac rate were not observed
  left ventricular pressure after vs before administration: significantly increased
[1]; pre-administration = 100%
  maximum +dP/dt after vs before administration: significantly increased
  maximum −dP/dt after vs before administration: significantly increased
Normal rats
  maximum +dP/dt after administration as compared to that by the comparative compound [A]: significantly raised
  maximum −dP/dt after administration as compared to that by the comparative compound [A]: significantly raised
Normal rats; pre-administration = 100%, n=3
  cardiac rate after administration relative to before administration: not increased
  left ventricular pressure after administration relative to before administration: significantly raised
  maximum +dP/dt (index of contractile function) after vs before administration: significant increases
  maximum −dP/dt (index of relaxing function) after vs before administration: significant increases
